Consider seven substances from US10377800B2, “Myelin oligodendrocyte glycoprotein (MOG) peptide” (APITOPE TECHNOLOGY (BRISTOL) LIMITED, priority 2013, dated 2019).

The subject of experiment [1] is HLA-DR2 transgenic mice. Description: ROK5 EAE prevention, first experiment (3 pre-treatments). It counts as in vivo. To be noted: pretreated 3 times, FIG. 6; for severity of the disease induced by MOG (clinical EAE score): 3 days apart, 100 μg s.c. flank, EAE by 200 μg mMOG35-55. Here is the method: (§1) To test the capacity of ROK5 to prevent MOG-induced EAE in HLA-DR2 transgenic mice, the disease model was established in this strain of mice. To induce the disease, the encephalitogenic MOG peptide, mouse MOG 35-55 (mMOG35-55) was used. Then, ROK5 was tested in EAE prevention experiments as follows:
Experiment 1: with 3 ROK5 dose pre-treatments, followed by immunisation with mMOG35-55.
(§2) In each experiment, 10 mice were used per group.
A first experiment was performed where animals were pretreated 3 times (3 days apart) with either mouse ROK5, human ROK5 or PBS, 100 μg in 100 μl in CFA (s.c. injection in the flank), then all animals were immunised with 200 μg mMOG35-55 in CFA (s.c. injection at the base of the tail) and with 200 ng Pertussis toxin (200 ng in PBS, i.p.) at day zero and day 2.
Every day, clinical EAE was scored and animal body weight measured.

The subject of experiment [2] is MOG-specific hybridoma T cell clones. As to the kind of experiment: Antigen processing independent presentation: peptides presented by live or p-formaldehyde fixed Mgar cells to T cell hybridoma clones, IL-2 production. It counts as cell-based, mice. To be noted: FIG. 1; for identification as apitope: detailed study, overlapping peptides in region 25-60 displaced by one amino acid. The source says:
A panel of 15-mer overlapping peptides spanning rhMOGED was synthesized using standard F-moc chemistry. […]
MOG-specific hybridoma T cell clones were generated by immunisation of DR2+ mice. DR2+ mice were immunised with either a pool of MOG overlapping peptides or rhMOGED in complete Freunds adjuvant (CFA). After 10 days, the spleen and draining lymph nodes were removed, CD4+ T cells were purified and restimulated with antigen/CFA in vitro. A week later, T cells were restimulated in vitro with antigen to increase the number of activated antigen-specific cells.
After 3 days, activated T cells were fused with the thymoma cell line BW 5147. Hybridoma clones were then selected using HAT selection medium and screened for peptide specificity by IL-2 ELISA.
Live or p-formaldehyde fixed Mgar (HLA-DR2+ve) cells were incubated with peptides in serum or in serum alone, together with T cells for 48 hours. The T cell proliferative response was measured by IL-2 production.

The test system of experiment [3] is HLA-DR2 transgenic mice. As to the kind of experiment: Ex vivo tolerance assay: recall proliferation with MOG 35-55 after peptide pre-treatment and MOG 35-55/CFA challenge. As to conditions: 100 μg on days -8, -4 and -2; challenge 100 μg MOG 35-55 in CFA day 0; harvest day 10; FIG. 2. Here is the method: (§3) HLA-DR2 transgenic mice were immunised with either 100 μg ROK5 (MOG 41-55), 100 μg MOG 35-55 or PBS on days −8, −4 and −2. On day 0, mice were challenged with 100 μg MOG 35-55 by injection in the tail base in combination with CFA.
On day 10, splenocytes and draining lymph nodes were harvested and their respective cell populations isolated and a recall proliferation assay was set up with MOG 35-55. Cells from individual mice were treated separately and data is plotted separately in FIG. 2. For the recall response cells were treated ex vivo with a dose range of MOG35-55 (100, 10, 1, 0.1, 0.01, 0 μg) and proliferation via ^3H-thymidine incorporation determined. Stimulation index (compared to proliferation with no antigen) was calculated for each condition.

For experiment [4], the system named is HLA-DR2 transgenic mice. As to the kind of experiment: ROK5 EAE prevention, second experiment (5 pre-treatments). It counts as in vivo. As to conditions: pretreated 5 times, 3 days apart, 100 μg s.c. flank; EAE by 200 μg mMOG35-55; FIG. 7. Here is the method: as §1
Experiment 2: with 5 ROK5 dose pre-treatments, followed by immunisation with mMOG35-55.
as §2
A second experiment was performed where animals were pretreated 5 times (3 days apart) with either human ROK5 or PBS, 100 μg in 100 μl in CFA (s.c. injection in the flank), then all animals were immunised with 200 μg mMOG35-55 in CFA (s.c. injection at the base of the tail) and with 200 ng Pertussis toxin (200 ng in PBS, i.p.) at day zero and day 2. Every day, clinical EAE was scored.

Another experiment relates to splenocytes. As to the kind of experiment: Cytokine profiles of splenocyte supernatants after in vivo ROK5 pre-treatment, MOG35-55 immunisation and in vitro recall. More on the design: species or system mice. As to conditions: ROK5 pretreatment vs PBS; FIG. 3. Here is the method: as §3
The effect of ROK5 pre-treatment on various cytokine profiles was also investigated.

The next experiment relates to DR2 transgenic mice. As to the kind of experiment: MOG-induced EAE model. It counts as in vivo. As to conditions: for Incidence (EAE) / Mean day of onset (EAE): Pertussis toxin day 0 and 2. Here is the method:
as §1
Two groups of DR2 transgenic mice were setup, at day zero, animals (n=7) in group “100 μg” received 100 μg mMOG35-55 in Complete Freund's Adjuvant (CFA) (100 μl, s.c., base of the tail injection), animals (n=8) in group “200 μg” received 200 μg mMOG35-55 in CFA. At day zero and day2, all animals received an injection of Pertussis toxin (200 ng in PBS, i.p.). Every day, clinical EAE was scored and animal body weight measured.

The conditions of experiment [5]: administered in solution; Anderton and Wraith (1998); cited from earlier work.
A further experiment has as its target T1, I-A^S (Mus musculus, UniProt P06345+P14437).
T1 sequence (P14437 1-233): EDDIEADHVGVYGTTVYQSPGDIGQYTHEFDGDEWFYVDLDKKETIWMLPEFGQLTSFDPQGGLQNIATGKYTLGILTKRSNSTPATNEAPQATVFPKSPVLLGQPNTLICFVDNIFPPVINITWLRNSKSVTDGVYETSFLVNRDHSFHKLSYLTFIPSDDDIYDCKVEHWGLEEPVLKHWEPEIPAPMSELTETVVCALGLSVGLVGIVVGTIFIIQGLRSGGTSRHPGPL
T1 sequence (P06345 28-263): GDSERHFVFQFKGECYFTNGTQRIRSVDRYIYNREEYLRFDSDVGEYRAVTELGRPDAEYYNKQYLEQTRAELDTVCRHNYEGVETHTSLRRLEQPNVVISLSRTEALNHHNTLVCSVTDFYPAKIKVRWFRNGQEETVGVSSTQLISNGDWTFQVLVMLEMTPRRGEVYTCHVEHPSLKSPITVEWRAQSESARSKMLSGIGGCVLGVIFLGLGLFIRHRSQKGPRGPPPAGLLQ
To be noted: cited from earlier work.

The mark [6] stands for this setting: 100 μg mMOG35-55 in CFA s.c. base of tail, n=7.
[7] abbreviates: 200 μg mMOG35-55 in CFA s.c. base of tail, n=8.

On to “RPPFSRVVHLYRNGK (listed as Homo sapiens) [ROK5, human MOG peptide 41-55, apitope]”, for which the “efficiency of human ROK5 compared with mouse ROK5 in reducing EAE severity” value in the experiment on HLA-DR2 transgenic mice [1] (100 μg) is “more efficient”. In addition, the “severity of the disease induced by MOG (clinical EAE score)” value in the experiment on HLA-DR2 transgenic mice [1] is recorded as “can reduce the severity of the disease”. Moreover, the “presentation by fixed APC to T cells without further processing (apitope)” value in experiment [2] (15-mer peptides displaced by 5aa, fixed APC) is recorded as “could be presented by fixed APC to T cells without further processing”. For the same substance, in experiment [2], the identification as apitope result is listed as “identified as apitopes”. Moreover, the “immune response to challenge with MOG 35-55 (recall proliferation, stimulation index)” value with HLA-DR2 transgenic mice [3] is given as “able to suppress the immune response”. Moreover, in the experiment on HLA-DR2 transgenic mice [4], the “peak of disease burden (timing)” value is “caused a delay in the peak of disease burden” and the “severity of disease (clinical EAE score)” value was “reduced the severity of disease”. For the same substance, in the experiment with splenocytes, the “production of GM-CSF by splenocytes” value is recorded as “clearly affected”, the “production of IFNγ by splenocytes” value was “clearly affected”, the “production of IL6 by splenocytes” value was “clearly affected” and the “production of IL-2 by splenocytes” value is recorded as “clearly affected”.

Consider “SRVVHLYRNGKDQDG (listed as Homo sapiens) [MOG 45-59, MOG peptide 45-59, apitope]”, for which the identification as apitope entry in experiment [2] is “identified as apitopes”.

Take “RSPFSRVVHLYRNGK (listed as Mus musculus) [mouse ROK5, mouse MOG 41-55, serine in position 42]”: the “severity of the disease induced by MOG (clinical EAE score)” value in the experiment on HLA-DR2 transgenic mice [1] is on record as “can reduce the severity of the disease”.

For the substance “MEVGWYRSPFSRVVHLYRNGK (listed as Mus musculus) [mMOG35-55, encephalitogenic MOG peptide used to induce EAE]”, the figures for the “Incidence (EAE)” value with DR2 transgenic mice (setting [6]) and with DR2 transgenic mice (setting [7]) were 4/7 and 7/8, respectively. For the same substance, the results for the “Mean day of onset (EAE)” value in the experiment with DR2 transgenic mice (setting [6]) and in the experiment on DR2 transgenic mice (setting [7]) were 12.25 days and 12 days, respectively. In addition, the “induction of EAE” value with DR2 transgenic mice (both doses (100 μg and 200 μg), FIGS. 5A, 5B) was “can induce EAE with a good incidence”.

For the substance “FSRVVHLYRNGKDQD (listed as Homo sapiens) [MOG 44-58, MOG peptide 44-58, apitope]”, in experiment [2], the identification as apitope entry is listed as “identified as apitopes”.

Take “MBP [89-101]: myelin basic protein peptide 89-101, immunodominant antigen, not tolerogenic (PHLIRLFSRDAPG; UniProt P04370 89-101, looked up, fragment)”: the induction of tolerance entry in experiment [5] is given as “ineffective at inducing tolerance”. Further, the “affinity of binding to I-A^S” value with I-A^S is “relatively high affinity”.

For “PFSRVVHLYRNGKDQ (listed as Homo sapiens) [MOG 43-57, MOG peptide 43-57, apitope]”, in experiment [2], the identification as apitope result was “identified as apitopes”.
